Laboratory results as given in PMC9247573 (Frontiers in Microbiology, 2022).
Numbering of substitutions follows the chain as printed.

T1: EcPsuK (Escherichia coli, UniProt Z9FTQ0OEG4)
T1 construct: N-terminal His6-SUMO removed with Ulp1; host E. coli BL21(DE3)
T1 sequence (Z9FTQ0OEG4 1-313): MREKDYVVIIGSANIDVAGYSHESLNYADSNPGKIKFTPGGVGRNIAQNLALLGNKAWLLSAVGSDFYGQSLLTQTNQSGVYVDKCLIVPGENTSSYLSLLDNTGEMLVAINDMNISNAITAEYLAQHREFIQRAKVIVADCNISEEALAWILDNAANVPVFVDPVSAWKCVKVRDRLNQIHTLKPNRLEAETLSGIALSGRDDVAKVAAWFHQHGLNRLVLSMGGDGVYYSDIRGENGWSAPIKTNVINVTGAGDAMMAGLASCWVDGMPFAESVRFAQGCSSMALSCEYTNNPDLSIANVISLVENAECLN

B1: Escherichia coli pseudouridine kinase PsuK (enzyme, E. coli BL21 (DE3), UniProt P30235 1-313, looked up)
chain: T1 sequence (Z9FTQ0OEG4 1-313) with R129G, D203E, R235S, N238S
notes: E. coli pseudouridine kinase PsuK (YeiC), amplified from the E. coli BL21 (DE3) genome, Uniprot ID A0A140N873, aa 1-313 (313 residues, calculated 33.6 kDa); modelled from Arg2 to Asn308 in the apo structure; Cloned by BamHI and XhoI into a modified pET-28a with an Ulp1 cleavage site; also called EcPsuK; YeiC; source: E. coli BL21 (DE3), purified (Ni-NTA, Ulp1 cleavage, second Ni-NTA, Superdex …)

How the values were obtained:
[1] = biological target: T1, EcPsuK; assay: X-ray crystallography, […] Å; format: binding; details: co-crystallised with ADP and Ψ, soaked with 1 mM Ψ and 4 mM ADP, MgCl2, pH 7.0, NaCl-purified protein; ADP not seen; nucleoside site; turnover also measured with ATP
[2] = biological target: the molecule itself; assay: SEC; HiLoad 16/60 Superdex 200-pg, 10 mM Tris-HCl pH 8.0, 100 mM NaCl or 100 mM KCl; molecular weight of the purified protein against the calculated monomer

Molecule | X-ray crystallography, 2.30 Å [1] | stoichiometry N [2]
O=c1[nH]cc([C@@H]2O[C@H](CO)[C@@H](O)[C@H]2O)c(=O)[nH]1 [pseudouridine] | we determined the crystal structure of EcPsuK complexed with pseudouridine through co-crystallization | –
B1 | – | 2
